Results: US11331327B2, “Antibacterial use of halogenated salicylanilides” (UNION therapeutics A/S, priority 2014, dated 2022)
≈ marks a conversion by molar mass, not a printed value.

Test system: S. aureus clinical isolates and S. aureus ATCC 29213
Experiment: MIC assay according to CLSI criteria, Example 2, S. aureus strains
Assay type: cell-based, Staphylococcus aureus
Conditions: Staphylococcus aureus
Outline: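 S. aureus grown aerobically in cation-adjusted Mueller Hinton broth at 37° C. Exponential-phase cultures inoculated at about 5×10^5 cells per well, then incubated 18 hours at 37° C.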

C=C[C@]1(C)C[C@@H](OC(=O)CS[C@@H]2C[C@H]3CC[C@@H](C2)N3C)[C@]2(C)[C@H](C)CC[C@]3(CCC(=O)[C@H]32)[C@@H](C)[C@@H]1O [Retapamulin]
MIC (ATCC29213, strain 9-1862936): 0.03 µg/mL (≈ 0.0579 µM) | MIC (ATCC29213, strain 9-2625962): 0.03 µg/mL (≈ 0.0579 µM) | MIC (ATCC29213, strain 9-2642158): 0.06 µg/mL (≈ 0.116 µM) | MIC (ATCC29213, strain 9-2955245): 0.06 µg/mL (≈ 0.116 µM) | MIC (ATCC29213, strain 9-26422166): 0.03 µg/mL (≈ 0.0579 µM) | MIC (ATCC29213, strain 000040C): 0.03 µg/mL (≈ 0.0579 µM) | MIC (ATCC29213, strain 000041C): 0.03 µg/mL (≈ 0.0579 µM) | MIC (ATCC29213, strain 000274T): 0.06 µg/mL (≈ 0.116 µM) | MIC (ATCC29213, strain 114660U): 0.06 µg/mL (≈ 0.116 µM) | MIC (ATCC29213, strain 115015T): 0.06 µg/mL (≈ 0.116 µM) | MIC (ATCC29213, strain 115242C): 0.03 µg/mL (≈ 0.0579 µM) | MIC (ATCC29213, strain 115263C): 0.03 µg/mL (≈ 0.0579 µM) | MIC (ATCC29213, strain 115268C): 0.03 µg/mL (≈ 0.0579 µM) | MIC (ATCC29213, strain 115273C): 0.03 µg/mL (≈ 0.0579 µM) | MIC (ATCC29213, strain 115295C): 0.03 µg/mL (≈ 0.0579 µM) | MIC (ATCC29213, strain 115303C): 0.03 µg/mL (≈ 0.0579 µM) | MIC (ATCC29213, strain 115370U): 0.06 µg/mL (≈ 0.116 µM) | MIC (ATCC29213, strain 115427C): 0.03 µg/mL (≈ 0.0579 µM) | MIC (ATCC29213, strain 115445C): 0.03 µg/mL (≈ 0.0579 µM) | MIC (ATCC29213, strain 115561C): 0.03 µg/mL (≈ 0.0579 µM) | MIC (ATCC29213, strain 115584D): 0.06 µg/mL (≈ 0.116 µM) | MIC (ATCC29213, strain 115628T): 0.03 µg/mL (≈ 0.0579 µM) | MIC (ATCC29213, strain 115690C): 0.25 µg/mL (≈ 0.483 µM) | MIC (ATCC29213, strain 115691T): 0.03 µg/mL (≈ 0.0579 µM) | MIC (ATCC29213, strain 115740E): 0.06 µg/mL (≈ 0.116 µM) | MIC (ATCC29213, strain 115810E): 0.06 µg/mL (≈ 0.116 µM) | MIC (ATCC29213, strain 115903T): 0.03 µg/mL (≈ 0.0579 µM) | MIC (ATCC29213, strain 116122T): 0.03 µg/mL (≈ 0.0579 µM) | MIC (ATCC29213, strain ATCC 29213): 0.03 µg/mL (≈ 0.0579 µM) | MIC (ATCC29213, strain E5-1029252): 0.03 µg/mL (≈ 0.0579 µM) | MIC (ATCC29213, strain E5-1029558): 0.03 µg/mL (≈ 0.0579 µM) | MIC (ATCC29213, strain E5-1030440): 0.06 µg/mL (≈ 0.116 µM) | MIC (ATCC29213, strain E5-1030469): 0.03 µg/mL (≈ 0.0579 µM) | MIC (ATCC29213, strain E5-1030472): 0.06 µg/mL (≈ 0.116 µM) | MIC (ATCC29213, strain E5-1030482): 0.02 µg/mL (≈ 0.0386 µM) | MIC (ATCC29213, strain E5-1033076 (first line, r202)): 0.03 µg/mL (≈ 0.0579 µM) | MIC (ATCC29213, strain E5-1033076 (second line, r203)): 0.03 µg/mL (≈ 0.0579 µM) | MIC (ATCC29213, strain E5-1033088): 0.03 µg/mL (≈ 0.0579 µM) | MIC (ATCC29213, strain E5-1033091): 0.02 µg/mL (≈ 0.0386 µM) | MIC (ATCC29213, strain E5-1035277): 0.03 µg/mL (≈ 0.0579 µM) | MIC (ATCC29213, strain E5-1035284): 0.03 µg/mL (≈ 0.0579 µM) | MIC (ATCC29213, strain E5-1035775): 0.06 µg/mL (≈ 0.116 µM) | MIC (ATCC29213, strain E5-1035779): 0.03 µg/mL (≈ 0.0579 µM) | MIC (ATCC29213, strain E5-1037958): 0.06 µg/mL (≈ 0.116 µM) | MIC (ATCC29213, strain E5-1037971): 0.03 µg/mL (≈ 0.0579 µM) | MIC (ATCC29213, strain E5-1038279): 0.03 µg/mL (≈ 0.0579 µM) | MIC (ATCC29213, strain E5-1038286): 0.06 µg/mL (≈ 0.116 µM) | MIC (ATCC29213, strain E5-1038294): 0.03 µg/mL (≈ 0.0579 µM) | MIC (ATCC29213, strain E5-1039684): 0.06 µg/mL (≈ 0.116 µM) | MIC (ATCC29213, strain E5-1039697): 0.06 µg/mL (≈ 0.116 µM) | MIC (ATCC29213, strain E5-1041977): 0.03 µg/mL (≈ 0.0579 µM) | MIC (ATCC29213, strain E5-1041979): 0.03 µg/mL (≈ 0.0579 µM) | MIC (ATCC29213, strain E5-1041980): 0.03 µg/mL (≈ 0.0579 µM) | MIC (ATCC29213, strain E5-1041987): 0.03 µg/mL (≈ 0.0579 µM) | MIC (ATCC29213, strain E5-1043184): 0.03 µg/mL (≈ 0.0579 µM) | MIC (ATCC29213, strain E5-1043668): 0.06 µg/mL (≈ 0.116 µM) | MIC (ATCC29213, strain E5-1045179): 0.06 µg/mL (≈ 0.116 µM) | MIC (ATCC29213, strain E5-1046019): 0.03 µg/mL (≈ 0.0579 µM) | MIC (ATCC29213, strain E5-1046020): 0.06 µg/mL (≈ 0.116 µM) | MIC (ATCC29213, strain E5-1046039): 0.06 µg/mL (≈ 0.116 µM) | MIC (ATCC29213, strain E5-1046070): 0.03 µg/mL (≈ 0.0579 µM) | MIC (ATCC29213, strain E5-1046074): 0.06 µg/mL (≈ 0.116 µM) | MIC (ATCC29213, strain E5-1046085): 0.06 µg/mL (≈ 0.116 µM) | MIC (ATCC29213, strain E5-1046096): 0.06 µg/mL (≈ 0.116 µM) | MIC (ATCC29213, strain E5-1046296): 0.03 µg/mL (≈ 0.0579 µM) | MIC (ATCC29213, strain E5-1046297): 0.06 µg/mL (≈ 0.116 µM) | MIC (ATCC29213, strain E5-1046298): 0.03 µg/mL (≈ 0.0579 µM) | MIC (ATCC29213, strain E5-1046723): 0.06 µg/mL (≈ 0.116 µM) | MIC (ATCC29213, strain E5-1047585): 0.03 µg/mL (≈ 0.0579 µM) | MIC (ATCC29213, strain E5-1047606): 0.03 µg/mL (≈ 0.0579 µM) | MIC (ATCC29213, strain E5-1047924): 0.03 µg/mL (≈ 0.0579 µM) | MIC (ATCC29213, strain E5-1048204): 0.03 µg/mL (≈ 0.0579 µM) | MIC (ATCC29213, strain E5-1048428): 0.06 µg/mL (≈ 0.116 µM) | MIC (ATCC29213, strain E5-1048654): 0.06 µg/mL (≈ 0.116 µM) | MIC (ATCC29213, strain E5-1048670): 0.06 µg/mL (≈ 0.116 µM) | MIC (ATCC29213, strain EEFIC 01): 0.03 µg/mL (≈ 0.0579 µM) | MIC (ATCC29213, strain EEFIC 02): 0.03 µg/mL (≈ 0.0579 µM) | MIC (ATCC29213, strain K000772): 0.06 µg/mL (≈ 0.116 µM) | MIC (ATCC29213, strain K000796): 0.03 µg/mL (≈ 0.0579 µM) | MIC (ATCC29213, strain K000863): 0.03 µg/mL (≈ 0.0579 µM) | MIC (ATCC29213, strain K000864): 0.03 µg/mL (≈ 0.0579 µM) | MIC (ATCC29213, strain K000866): 0.03 µg/mL (≈ 0.0579 µM) | MIC (ATCC29213, strain K115498): 0.03 µg/mL (≈ 0.0579 µM) | MIC (ATCC29213, strain K115688): 0.03 µg/mL (≈ 0.0579 µM) | MIC (ATCC29213, strain K115689): 0.03 µg/mL (≈ 0.0579 µM) | MIC (ATCC29213, strain R000019): 0.06 µg/mL (≈ 0.116 µM) | MIC (ATCC29213, strain R000020): 0.03 µg/mL (≈ 0.0579 µM) | MIC (ATCC29213, strain R000024): 0.06 µg/mL (≈ 0.116 µM) | MIC (ATCC29213, strain U115579): 0.06 µg/mL (≈ 0.116 µM) | MIC (ATCC 29213 / MRSA, strain MRSA 01): 0.06 µg/mL (≈ 0.116 µM) | MIC (ATCC 29213 / MRSA, strain MRSA 02): 0.06 µg/mL (≈ 0.116 µM) | MIC (ATCC 29213 / MRSA, strain MRSA 03): 0.03 µg/mL (≈ 0.0579 µM) | MIC (ATCC 29213 / MRSA, strain MRSA 04): 0.06 µg/mL (≈ 0.116 µM) | MIC (ATCC 29213 / MRSA, strain MRSA 05): 0.03 µg/mL (≈ 0.0579 µM) | MIC (ATCC 29213 / MRSA, strain MRSA 06): 0.03 µg/mL (≈ 0.0579 µM) | MIC (ATCC 29213 / MRSA, strain MRSA 07): 0.06 µg/mL (≈ 0.116 µM) | MIC (ATCC 29213 / MRSA, strain MRSA 08): 0.03 µg/mL (≈ 0.0579 µM) | MIC (ATCC 29213 / MRSA, strain MRSA 09): 0.06 µg/mL (≈ 0.116 µM) | MIC (ATCC 29213 / MRSA, strain MRSA 10): 0.06 µg/mL (≈ 0.116 µM) | MIC (ATCC 29213 / MRSA, strain MRSA 11): 0.06 µg/mL (≈ 0.116 µM) | MIC (ATCC 29213 / MRSA, strain MRSA 12): 0.03 µg/mL (≈ 0.0579 µM) | MIC (ATCC 29213 / MRSA, strain MRSA 13): 0.06 µg/mL (≈ 0.116 µM) | MIC (ATCC 29213 / MRSA, strain MRSA 14): 0.03 µg/mL (≈ 0.0579 µM)
